One experiment addresses PI3K-γ (Homo sapiens, UniProt P48736). As to the kind of experiment: PI3K-gamma fluorescence polarization assay.
Experiment [1] deals with human prostate LNCap tumor cell line. As to the kind of experiment: In vitro cell culture growth assay (MTS), LNCap. The settings on record: Homo sapiens, LNCaP, 72 h, read-out: IC50 LNCap.
The target in a further experiment is Human mTOR (FLAG-TOR) (Homo sapiens, UniProt P42345). As to the kind of experiment: mTOR kinase assay (DELFIA format, purified enzyme). It counts as biochemical. As to conditions: read-out: IC50 mTOR.
In a further experiment the target is PI3K-α (Homo sapiens, UniProt P42336). In words: PI3K-alpha fluorescence polarization assay. The settings on record: read-out: IC50 PI3Kα.

Read-outs that look alike come from different tables or passages of the source.

Chain of PI3K-α (P42336 whole entry, species assumed): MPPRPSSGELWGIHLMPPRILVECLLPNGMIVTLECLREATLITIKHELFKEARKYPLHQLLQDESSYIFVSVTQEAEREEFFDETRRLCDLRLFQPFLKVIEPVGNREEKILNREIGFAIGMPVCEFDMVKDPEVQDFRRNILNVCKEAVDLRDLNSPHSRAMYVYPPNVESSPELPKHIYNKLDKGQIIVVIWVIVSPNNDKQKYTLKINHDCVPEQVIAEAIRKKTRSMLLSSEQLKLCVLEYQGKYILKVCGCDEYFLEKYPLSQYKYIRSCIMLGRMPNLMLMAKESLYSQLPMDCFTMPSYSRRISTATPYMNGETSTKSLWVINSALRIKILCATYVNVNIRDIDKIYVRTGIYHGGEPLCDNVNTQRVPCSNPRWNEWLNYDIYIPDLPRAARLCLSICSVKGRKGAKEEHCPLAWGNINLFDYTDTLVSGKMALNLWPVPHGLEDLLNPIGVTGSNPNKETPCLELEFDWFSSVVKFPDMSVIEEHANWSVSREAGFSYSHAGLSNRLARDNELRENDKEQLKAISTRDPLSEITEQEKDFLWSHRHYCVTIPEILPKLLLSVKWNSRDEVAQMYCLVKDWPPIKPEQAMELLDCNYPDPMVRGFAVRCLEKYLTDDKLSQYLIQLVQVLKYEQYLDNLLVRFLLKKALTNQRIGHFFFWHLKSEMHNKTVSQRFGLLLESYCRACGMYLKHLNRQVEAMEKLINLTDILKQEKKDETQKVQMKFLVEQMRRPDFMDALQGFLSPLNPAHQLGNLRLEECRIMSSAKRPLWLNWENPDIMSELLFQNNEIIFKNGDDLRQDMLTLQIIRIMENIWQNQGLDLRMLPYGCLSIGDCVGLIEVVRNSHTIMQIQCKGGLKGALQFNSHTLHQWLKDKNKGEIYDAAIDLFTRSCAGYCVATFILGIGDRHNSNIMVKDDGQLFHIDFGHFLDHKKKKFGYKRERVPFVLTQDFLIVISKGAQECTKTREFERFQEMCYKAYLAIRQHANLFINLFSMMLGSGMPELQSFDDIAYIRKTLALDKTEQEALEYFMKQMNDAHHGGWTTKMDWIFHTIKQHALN
Chain of PI3K-α (P27986 whole entry partner, species assumed): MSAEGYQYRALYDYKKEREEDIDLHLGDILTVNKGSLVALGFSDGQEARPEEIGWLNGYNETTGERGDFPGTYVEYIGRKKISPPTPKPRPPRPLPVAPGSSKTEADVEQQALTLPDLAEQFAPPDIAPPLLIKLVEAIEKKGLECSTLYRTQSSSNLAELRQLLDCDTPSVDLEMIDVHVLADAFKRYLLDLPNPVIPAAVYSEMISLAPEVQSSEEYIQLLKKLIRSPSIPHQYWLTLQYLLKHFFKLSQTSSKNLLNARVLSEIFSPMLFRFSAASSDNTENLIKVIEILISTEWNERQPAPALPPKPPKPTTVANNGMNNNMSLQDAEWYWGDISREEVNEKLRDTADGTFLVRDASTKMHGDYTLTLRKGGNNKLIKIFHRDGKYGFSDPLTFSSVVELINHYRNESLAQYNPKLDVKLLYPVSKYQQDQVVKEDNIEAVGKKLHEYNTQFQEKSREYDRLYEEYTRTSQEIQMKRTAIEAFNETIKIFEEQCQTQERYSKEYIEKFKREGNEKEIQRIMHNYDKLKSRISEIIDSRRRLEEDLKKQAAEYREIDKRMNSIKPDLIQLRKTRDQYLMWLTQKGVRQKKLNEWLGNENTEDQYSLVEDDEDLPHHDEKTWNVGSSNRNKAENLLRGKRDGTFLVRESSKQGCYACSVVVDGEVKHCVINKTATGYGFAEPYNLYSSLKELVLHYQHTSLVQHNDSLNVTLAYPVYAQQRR
Chain of Human mTOR (FLAG-TOR) (P42345 1360-2549 limits assumed): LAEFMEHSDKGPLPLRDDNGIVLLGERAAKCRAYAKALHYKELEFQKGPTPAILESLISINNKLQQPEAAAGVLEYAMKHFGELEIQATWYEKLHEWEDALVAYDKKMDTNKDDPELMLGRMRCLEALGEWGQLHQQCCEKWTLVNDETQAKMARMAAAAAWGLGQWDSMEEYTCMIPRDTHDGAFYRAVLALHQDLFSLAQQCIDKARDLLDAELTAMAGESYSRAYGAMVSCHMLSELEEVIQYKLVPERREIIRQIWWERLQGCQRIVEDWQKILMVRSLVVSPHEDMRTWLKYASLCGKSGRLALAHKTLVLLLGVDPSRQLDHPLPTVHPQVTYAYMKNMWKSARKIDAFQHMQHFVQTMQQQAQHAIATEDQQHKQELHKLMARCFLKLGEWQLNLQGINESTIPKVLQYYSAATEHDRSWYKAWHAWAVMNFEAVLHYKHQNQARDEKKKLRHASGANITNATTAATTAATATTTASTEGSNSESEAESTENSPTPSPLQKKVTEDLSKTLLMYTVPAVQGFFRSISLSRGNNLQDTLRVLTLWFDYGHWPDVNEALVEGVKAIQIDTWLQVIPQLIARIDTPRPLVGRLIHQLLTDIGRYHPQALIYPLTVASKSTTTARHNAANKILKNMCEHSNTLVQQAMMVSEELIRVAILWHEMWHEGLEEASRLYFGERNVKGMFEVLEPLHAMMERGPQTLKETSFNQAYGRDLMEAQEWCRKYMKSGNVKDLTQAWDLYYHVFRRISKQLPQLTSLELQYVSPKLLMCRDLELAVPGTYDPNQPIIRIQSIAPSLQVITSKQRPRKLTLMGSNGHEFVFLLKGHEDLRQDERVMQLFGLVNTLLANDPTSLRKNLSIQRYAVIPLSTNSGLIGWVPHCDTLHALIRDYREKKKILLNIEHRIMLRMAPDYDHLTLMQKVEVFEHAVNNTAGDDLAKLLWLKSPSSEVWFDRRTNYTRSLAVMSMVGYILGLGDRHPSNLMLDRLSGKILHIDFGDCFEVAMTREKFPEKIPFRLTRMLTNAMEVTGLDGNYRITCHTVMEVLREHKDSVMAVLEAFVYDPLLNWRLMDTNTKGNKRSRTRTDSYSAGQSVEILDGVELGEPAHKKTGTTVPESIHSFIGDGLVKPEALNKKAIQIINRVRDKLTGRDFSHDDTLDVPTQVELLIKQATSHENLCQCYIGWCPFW
Chain of PI3K-γ (P48736 whole entry, species assumed): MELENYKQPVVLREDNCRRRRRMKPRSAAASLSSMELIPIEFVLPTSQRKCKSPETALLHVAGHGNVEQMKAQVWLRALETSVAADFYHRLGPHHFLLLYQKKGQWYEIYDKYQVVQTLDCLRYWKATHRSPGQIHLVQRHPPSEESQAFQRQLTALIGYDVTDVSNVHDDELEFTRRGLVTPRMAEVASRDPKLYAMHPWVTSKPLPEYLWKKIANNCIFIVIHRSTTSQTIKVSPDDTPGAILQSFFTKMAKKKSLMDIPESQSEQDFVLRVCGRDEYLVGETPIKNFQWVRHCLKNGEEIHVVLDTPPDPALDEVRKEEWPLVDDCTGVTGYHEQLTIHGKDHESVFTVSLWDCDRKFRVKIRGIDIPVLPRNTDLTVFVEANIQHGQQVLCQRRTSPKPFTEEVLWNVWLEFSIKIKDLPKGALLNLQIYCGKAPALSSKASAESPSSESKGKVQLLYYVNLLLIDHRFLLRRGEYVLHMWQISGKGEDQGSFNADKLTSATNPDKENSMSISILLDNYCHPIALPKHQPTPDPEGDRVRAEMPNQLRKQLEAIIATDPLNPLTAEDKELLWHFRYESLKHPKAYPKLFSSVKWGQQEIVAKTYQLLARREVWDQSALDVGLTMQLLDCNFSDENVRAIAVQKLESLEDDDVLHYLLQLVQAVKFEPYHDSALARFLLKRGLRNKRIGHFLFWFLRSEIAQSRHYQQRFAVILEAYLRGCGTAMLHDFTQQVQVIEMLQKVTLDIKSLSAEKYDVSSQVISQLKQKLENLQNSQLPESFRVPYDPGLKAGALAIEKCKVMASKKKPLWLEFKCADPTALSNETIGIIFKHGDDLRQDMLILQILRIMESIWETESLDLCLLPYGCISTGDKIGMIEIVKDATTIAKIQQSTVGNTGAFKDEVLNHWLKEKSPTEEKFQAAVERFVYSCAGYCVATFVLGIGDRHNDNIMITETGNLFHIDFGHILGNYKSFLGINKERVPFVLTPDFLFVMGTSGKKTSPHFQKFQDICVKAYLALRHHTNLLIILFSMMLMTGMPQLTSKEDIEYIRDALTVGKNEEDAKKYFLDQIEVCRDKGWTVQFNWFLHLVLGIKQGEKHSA

As for `C[C@@H]1COCCN1c1nc(-c2ccc(NC(=O)Nc3ccc(N4CCN(C)CC4)nc3)cc2)nc(N2C3CCC2COC3)n1` [Example 446, 1-(4-(4-(3-oxa-8-azabicyclo[3.2.1]octan-8-yl)-6-((R)-3-methylmorpholino)-1,3,5-triazin-2-yl)phenyl)-3-(6-(4-methylpiperazin-1-yl)pyridin-3-yl)urea], the half-inhibitory concentration (IC50) is 4010 nM on PI3K-γ (read-out: IC50 PI3Kγ), 15 nM in experiment [1], 0.82 nM at Human mTOR (FLAG-TOR) and 835 nM at PI3K-α.

Regarding `CCN1CCN(c2ccc(NC(=O)Nc3ccc(-c4nc(N5CCOC[C@H]5C)nc(N5CCOC[C@H]5C)n4)cc3)cc2)CC1` [Example 447, 1-(4-(4,6-bis((R)-3-methylmorpholino)-1,3,5-triazin-2-yl)phenyl)-3-(4-(4-ethylpiperazin-1-yl)phenyl)urea], the IC50 on PI3K-γ (read-out: IC50 PI3Kγ) is 2800 nM; in experiment [1], 8 nM; on Human mTOR (FLAG-TOR) it was 1.9 nM; at PI3K-α, 390 nM.

With `CC(C)N1CCN(c2ccc(NC(=O)Nc3ccc(-c4nc(N5CCOC[C@H]5C)nc(N5CCOC[C@H]5C)n4)cc3)cc2)CC1` [Example 448, 1-(4-(4,6-bis((R)-3-methylmorpholino)-1,3,5-triazin-2-yl)phenyl)-3-(4-(4-isopropylpiperazin-1-yl)phenyl)urea], the IC50 was more than 10000 nM on PI3K-γ, 18 nM in experiment [1], 2.3 nM on Human mTOR (FLAG-TOR) and 519 nM on PI3K-α.

As for `C[C@@H]1COCCN1c1nc(-c2ccc(NC(=O)Nc3ccc(C(=O)N4CCN(C)CC4)cc3)cc2)nc(N2CCOC[C@H]2C)n1` [Example 450, 1-(4-(4,6-bis((R)-3-methylmorpholino)-1,3,5-triazin-2-yl)phenyl)-3-(4-(4-methylpiperazine-1-carbonyl)phenyl)urea], the IC50 was 888 nM on PI3K-γ (read-out: IC50 PI3Kγ), less than 0.8 nM in experiment [1], 1.7 nM at Human mTOR (FLAG-TOR) and 76 nM on PI3K-α.

With `CC(C)N1CCN(C(=O)c2ccc(NC(=O)Nc3ccc(-c4nc(N5CCOC[C@H]5C)nc(N5CCOC[C@H]5C)n4)cc3)cc2)CC1` [Example 451, 1-(4-(4,6-bis((R)-3-methylmorpholino)-1,3,5-triazin-2-yl)phenyl)-3-(4-(4-isopropylpiperazine-1-carbonyl)phenyl)urea], the IC50 at PI3K-γ (read-out: IC50 PI3Kγ) was 702 nM; in experiment [1], less than 0.8 nM; on Human mTOR (FLAG-TOR), 1.4 nM; on PI3K-α it was 85 nM.

For `C[C@@H]1COCCN1c1nc(-c2ccc(NC(=O)Nc3ccc(C(=O)N(C)C)cc3)cc2)nc(N2CCOC[C@H]2C)n1` [Example 452, 4-(3-(4-(4,6-bis((R)-3-methylmorpholino)-1,3,5-triazin-2-yl)phenyl)ureido)-N,N-dimethylbenzamide], the half-inhibitory concentration (IC50) at PI3K-γ (read-out: IC50 PI3Kγ) is 502 nM; in experiment [1] it was less than 0.8 nM; on Human mTOR (FLAG-TOR) it was 0.55 nM; on PI3K-α, 41 nM.

As for `C[C@@H]1COCCN1c1nc(-c2ccc(NC(=O)Nc3ccc(CN4CCCC4)cc3)cc2)nc(N2CCOC[C@H]2C)n1` [Example 453, 1-(4-(4,6-bis((R)-3-methylmorpholino)-1,3,5-triazin-2-yl)phenyl)-3-(4-(pyrrolidin-1-ylmethyl)phenyl)urea], the IC50 at PI3K-γ (read-out: IC50 PI3Kγ) was 4270 nM; in experiment [1] it was 30 nM; at Human mTOR (FLAG-TOR) it was 3.3 nM; at PI3K-α, 659 nM.

As to `NC(=O)c1ccc(NC(=O)Nc2ccc(-c3nc(C4CCOCC4)nc(N4C5CCC4COC5)n3)cc2)cc1` [Example 454, 4-(3-(4-(4-(3-oxa-8-azabicyclo[3.2.1]octan-8-yl)-6-(tetrahydro-2H-pyran-4-yl)-1,3,5-triazin-2-yl)phenyl)ureido)benzamide], the IC50 at PI3K-γ (read-out: IC50 PI3Kγ) was 1490 nM; in experiment [1], less than 0.8 nM; at Human mTOR (FLAG-TOR), 0.2 nM; at PI3K-α, 278 nM.

With `CN(C)C(=O)c1ccc(NC(=O)Nc2ccc(-c3nc(C4CCOCC4)nc(N4C5CCC4COC5)n3)cc2)cc1` [Example 455, 4-(3-(4-(4-(3-oxa-8-azabicyclo[3.2.1]octan-8-yl)-6-(tetrahydro-2H-pyran-4-yl)-1,3,5-triazin-2-yl)phenyl)ureido)-N,N-dimethylbenzamide], the IC50 at PI3K-γ (read-out: IC50 PI3Kγ) is 1390 nM; in experiment [1] it was less than 0.8 nM; on Human mTOR (FLAG-TOR), 0.3 nM; on PI3K-α, 113 nM.

Take `O=C(Nc1ccc(C(=O)N2CCCC2)cc1)Nc1ccc(-c2nc(C3CCOCC3)nc(N3C4CCC3COC4)n2)cc1` [Example 456, 1-(4-(4-(3-oxa-8-azabicyclo[3.2.1]octan-8-yl)-6-(tetrahydro-2H-pyran-4-yl)-1,3,5-triazin-2-yl)phenyl)-3-(4-(pyrrolidine-1-carbonyl)phenyl)urea]: the IC50 at PI3K-γ (read-out: IC50 PI3Kγ) is 1550 nM; in experiment [1], less than 0.8 nM; on Human mTOR (FLAG-TOR), 0.7 nM; at PI3K-α, 150 nM.

Regarding `CNCCNC(=O)c1ccc(NC(=O)Nc2ccc(-c3nc(C4CCOCC4)nc(N4C5CCC4COC5)n3)cc2)cc1` [Example 458, 4-(3-(4-(4-(3-oxa-8-azabicyclo[3.2.1]octan-8-yl)-6-(tetrahydro-2H-pyran-4-yl)-1,3,5-triazin-2-yl)phenyl)ureido)-N-(2-(methylamino)ethyl)benzamide], the concentration for half-maximal inhibition (IC50) turned out to be 512 nM at PI3K-γ (read-out: IC50 PI3Kγ), 8 nM in experiment [1], 0.2 nM at Human mTOR (FLAG-TOR) and 33 nM on PI3K-α.

For `CN(C)CCN(C)C(=O)c1ccc(NC(=O)Nc2ccc(-c3nc(C4CCOCC4)nc(N4C5CCC4COC5)n3)cc2)cc1` [Example 459, 4-(3-(4-(4-(3-oxa-8-azabicyclo[3.2.1]octan-8-yl)-6-(tetrahydro-2H-pyran-4-yl)-1,3,5-triazin-2-yl)phenyl)ureido)-N-(2-(dimethylamino)ethyl)-N-methylbenzamide], the concentration for half-maximal inhibition (IC50) was 483 nM on PI3K-γ (read-out: IC50 PI3Kγ), less than 0.8 nM in experiment [1], 0.3 nM at Human mTOR (FLAG-TOR) and 26 nM at PI3K-α.

In the case of `O=C(Nc1ccc(C(=O)N2CCOCC2)cc1)Nc1ccc(-c2nc(C3CCOCC3)nc(N3C4CCC3COC4)n2)cc1` [Example 460, 1-(4-(4-(3-oxa-8-azabicyclo[3.2.1]octan-8-yl)-6-(tetrahydro-2H-pyran-4-yl)-1,3,5-triazin-2-yl)phenyl)-3-(4-(morpholine-4-carbonyl)phenyl)urea], the IC50 was 1080 nM at PI3K-γ (read-out: IC50 PI3Kγ), less than 0.8 nM in experiment [1], 0.4 nM at Human mTOR (FLAG-TOR) and 143 nM at PI3K-α.

`NCCNc1ccc(NC(=O)Nc2ccc(-c3nc(N4C5CCC4COC5)nc(N4C5CCC4COC5)n3)cc2)cc1` [Example 461, 1-(4-(2-aminoethylamino)phenyl)-3-(4-(4,6-di(3-oxa-8-azabicyclo[3.2.1]octan-8-yl)-1,3,5-triazin-2-yl)phenyl)urea]: the IC50 stood at 4420 nM at PI3K-γ (read-out: IC50 PI3Kγ), 68 nM in experiment [1], 1.1 nM at Human mTOR (FLAG-TOR) and 482 nM at PI3K-α.

`CC(C)c1nc(-c2ccc(NC(=O)Nc3ccc(-c4ccncc4)cc3)cc2)nc(N2CCOCC2)n1` [Example 489, 1-{4-[4-(1-methylethyl)-6-morpholin-4-yl-1,3,5-triazin-2-yl]phenyl}-3-(4-pyridin-4-ylphenyl)urea]: the IC50 stood at 9040 nM on PI3K-γ (read-out: IC50 PI3Kγ), 4300 nM in experiment [1], 2.2 nM at Human mTOR (FLAG-TOR) and 3670 nM at PI3K-α.

These data come from patent US20090304692A1, “TRIAZINE COMPOUNDS AS PI3 KINASE AND MTOR INHIBITORS” (Wyeth, priority 2008, published 2009).
